Among the data in patent US20120115867A1, “NEW CLASS OF HISTONE DEACETYLASE INHIBITORS” (DAC S.R.L., priority 2004, published 2012) are IC50 values, retold here.

The test system of this assay is HDAC (nuclear fraction of Hela cells). The experiment in a line: Assay of enzyme inhibition of HDAC (BIOMOL Kit, fluorescence). Type of assay: biochemical. The settings on record: 30× diluted nuclear fraction of Hela cells; substrate 200 μM; 15 min at RT. As to the method: The in-vitro activity of HDAC inhibitors was assayed by means of a biochemical assay using a BIOMOL Kit, according to the instructions from the manufacturer (Biomolecular Research Laborator). Briefly, 15 μl of 30× diluted nuclear fraction of Hela cells, was diluted to 50 μl with the assay buffer containing the HDAC inhibitor and the substrate (lysine with acetylated amino on the side chain) at a concentration of 200 μM. The samples were incubated for 15 min at RT and then exposed to a developer (10 min at RT). In this last step a fluorophore was produced, whose fluorescence was measured using an excitation wavelength of 355 nm and an emission at 460 nm. The IC50 is calculated using GraphPad Software.
The reference HDAC inhibitors marked with (*) are those disclosed in the patent application WO2006/037761.

By IC50 is commonly meant the midpoint of a concentration-inhibition curve. High values mean lower potency, low ones higher potency. As for `O=C(/C=C/c1cccc(/C=C/C(=O)c2ccccc2Cl)c1)NO` [Ref (*)MC1670, reference compound], the IC50 was 389 nM. `O=C(/C=C/c1cccc(/C=C/C(=O)c2cccc(Cl)c2)c1)NO` [Ref (*)MC1672, reference compound] returned an IC50 of 1460 nM. `COc1cc(C(=O)/C=C/c2ccc(/C=C/C(=O)NO)cc2)ccc1CN1CCOCC1` [Ref (*) 48, reference compound]: the IC50 is 73.3 nM.

Consider `O=C(/C=C/c1cccc(/C=C/C(=O)c2ccccc2F)c1)NO` [Ref (*)MC1661, reference compound], for which half-maximal inhibition (IC50) required 130 nM. In turn, `O=C(/C=C/c1ccc(/C=C/C(=O)c2ccc(N3CCOCC3)cc2)cc1)NO` [Ref (*) 41, reference compound] gave an IC50 of 1360 nM. Take `O=C(/C=C/c1cccc(/C=C/C(=O)c2cccc(F)c2)c1)NO` [Ref (*)MC1653, reference compound]: the IC50 worked out at 1370 nM.

As for `O=C(/C=C/c1ccc(/C=C/C(=O)c2ccc(N3CCOCC3)cc2)c(F)c1)NO` [Ref (*) 29, reference compound], half-maximal inhibition (IC50) was put at 2840 nM.

`CN1CCN(c2cc(Cl)cc(C(=O)/C=C/c3cccc(/C=C/C(=O)NO)n3)c2)CC1` [Example 11, (E)-3-(6-{(E)-3-[3-Chloro-5-(4-methyl-piperazin-1-yl)-phenyl]-3-oxo-propenyl}-pyridin-2-yl)-N-hydroxy-acrylamide] had an IC50 of 29 nM.
